The source of these data is US11597721B2, “Heterocyclic compounds comprising pyridine useful as modulators of IL-12, IL-23 and/or IFNα responses” (BRISTOL-MYERS SQUIBB COMPANY, priority 2018, dated 2023).

The subject of this assay is IFNα-Induced STAT Phosphorylation. In words: IFNα-Induced STAT Phosphorylation in Human Whole Blood. Format: cell-based. As to conditions: 1 h compound incubation, 1000 U/mL recombinant human IFNα A/D for 15 min, pSTAT5 in CD3 positive population, read-out: LE Human WB IFNα-Induced Stat Phosph. (IC50). The text has this:
IFNα-Induced STAT Phosphorylation in Human Whole Blood
The amount of pSTAT5 expression was quantitated by median fluorescence intensity after gating on the CD3 positive population.

Broadly, the IC50 is the midpoint of a concentration-inhibition curve.

Molecules are shown by their SMILES. Read-outs that look alike come from different tables or passages of the source.

In the case of `[2H]C([2H])([2H])NC(=O)c1nnc(NC(=O)OC)cc1Nc1nccc(-c2noc(CN3CCCCS3(=O)=O)n2)c1OC` [Example 64, methyl N-{5-[(4-{5-[(1,1-dioxo-1λ^6,2-thiazinan-2-yl)methyl]-1,2,4-oxadiazol-3-yl}-3-methoxypyridin-2-yl)amino]-6-[(^2H3)methylcarbamoyl]pyridazin-3-yl}carbamate], the IC50 (Homo sapiens) stood at 90 nM.

Consider `[2H]C([2H])([2H])NC(=O)c1nnc(Nc2cc(C(C)(C)O)ccn2)cc1Nc1nccc(-c2ncn(C)n2)c1OC` [Example 25, 6-{[4-(2-hydroxypropan-2-yl)pyridin-2-yl]amino}-4-{[3-methoxy-4-(1-methyl-1H-1,2,4-triazol-3-yl)pyridin-2-yl]amino}-N—(^2H3)methylpyridazine-3-carboxamide], for which, where the note is “Homo sapiens”, the IC50 is 50 nM.

For the compound `[2H]C([2H])([2H])NC(=O)c1cnc(NC(=O)C2CC2)cc1Nc1nccc(-c2ccc(NC(=O)C3CC3)cn2)c1OC` [Example 85, 6-(Cyclopropanecarboxamido)-4-((5-(cyclopropanecarboxamido)-3′-methoxy-[2,4′-bipyridin]-2′-yl)amino)-N-(methyl-d3)nicotinamide], for the setting “Homo sapiens”, the concentration for half-maximal inhibition (IC50) was 150 nM.

As for `[2H]C([2H])([2H])NC(=O)c1nnc(NC(=O)C2CC2)cc1Nc1nccc(-c2noc(CC#N)n2)c1OC` [Example 60, 4-({4-[5-(cyanomethyl)-1,2,4-oxadiazol-3-yl]-3-methoxypyridin-2-yl}amino)-6-cyclopropaneamido-N—(^2H3)methylpyridazine-3-carboxamide], the IC50 (Homo sapiens) was 130 nM.

As to `[2H]C([2H])([2H])NC(=O)c1nnc(Nc2cc(C)ccn2)cc1Nc1nccc(-c2noc(CN(C)S(C)(=O)=O)n2)c1OC` [Example 61, 4-[(3-methoxy-4-{5-[(N-methylmethanesulfonamido)methyl]-1,2,4-oxadiazol-3-yl}pyridin-2-yl)amino]-N—(^2H3)methyl-6-[(4-methylpyridin-2-yl)amino]pyridazine-3-carboxamide], the IC50 (Homo sapiens) was found to be 300 nM.

On to `[2H]C([2H])([2H])NC(=O)c1nnc(Nc2cc(CC)ccn2)cc1Nc1nccc(-c2ncn(C)n2)c1OC` [Example 17, 6-[(4-ethylpyridin-2-yl)amino]-4-{[3-methoxy-4-(1-methyl-1H-1,2,4-triazol-3-yl)pyridin-2-yl]amino}-N—(^2H3)methylpyridazine-3-carboxamide], for which, where the note is “Homo sapiens”, the IC50 came to 50 nM.

On to `[2H]C([2H])([2H])NC(=O)c1nnc(NC(=O)C2CC2)cc1Nc1nccc(-c2cnc(C(=O)N(C)C)cn2)c1OC` [Example 87, 6-(Cyclopropanecarboxamido)-4-((4-(5-(dimethylcarbamoyl)pyrazin-2-yl)-3-methoxypyridin-2-yl)amino)-N-(methyl-d3)pyridazine-3-carboxamide], for which, for the setting “Homo sapiens”, the half-maximal inhibitory concentration (IC50) worked out at 30 nM.

With `[2H]C([2H])([2H])NC(=O)c1nnc(NC(=O)OC)cc1Nc1nccc(-c2noc(C)n2)c1OC` [Example 56, methyl N-(5-{[3-methoxy-4-(5-methyl-1,2,4-oxadiazol-3-yl)pyridin-2-yl]amino}-6-[(^2H3)methylcarbamoyl]pyridazin-3-yl)carbamate], the half-inhibitory concentration (IC50) (Homo sapiens) is 1340 nM.

Take `[2H]C([2H])([2H])NC(=O)c1cnc(Nc2cc(C#N)ccn2)cc1Nc1nccc(-c2nnn(C)n2)c1OC` [Example 106, 6-[(4-cyanopyridin-2-yl)amino]-4-{[3-methoxy-4-(2-methyl-2H-1,2,3,4-tetrazol-5-yl)pyridin-2-yl]amino}-N—(^2H3)methylpyridine-3-carboxamide]: the IC50 (Homo sapiens) was 70 nM.

Turning to `[2H]C([2H])([2H])NC(=O)c1nnc(Nc2cc(C)ccn2)cc1Nc1nccc(-c2noc(CN3CCOCC3)n2)c1OC` [Example 42, 4-((3-methoxy-4-(5-(morpholinomethyl)-1,2,4-oxadiazol-3-yl)pyridin-2-yl)amino)-N-trideuteromethyl-6-((4-methylpyridin-2-yl)amino)pyridazine-3-carboxamide], for the setting “Homo sapiens”, the half-inhibitory concentration (IC50) is 580 nM.

Consider `[2H]C([2H])([2H])NC(=O)c1cnc(NC(=O)C2CC2)cc1Nc1nccc(-c2ccc(Cl)cn2)c1OC` [Example 86, 4-((5-Chloro-3′-methoxy-[2,4′-bipyridin]-2′-yl)amino)-6-(cyclopropanecarboxamido)-N-(methyl-d3)nicotinamide], for which, for the setting “Homo sapiens”, the IC50 was determined as 480 nM.

For the compound `[2H]C([2H])([2H])NC(=O)c1nnc(NC(=O)CC)cc1Nc1nccc(-c2noc(CN3CCOCC3)n2)c1OC` [Example 65, 4-[(3-methoxy-4-{5-[(morpholin-4-yl)methyl]-1,2,4-oxadiazol-3-yl}pyridin-2-yl)amino]-N—(^2H3)methyl-6-propanamidopyridazine-3-carboxamide], the IC50 (Homo sapiens) worked out at 120 nM.

`[2H]C([2H])([2H])NC(=O)c1nnc(NC(=O)CC2CC2)cc1Nc1nccc(-c2noc(CN(C)S(C)(=O)=O)n2)c1OC` [Example 67, 6-(2-cyclopropylacetamido)-4-[(3-methoxy-4-{5-[(N-methylmethanesulfonamido)methyl]-1,2,4-oxadiazol-3-yl}pyridin-2-yl)amino]-N—(^2H3)methylpyridazine-3-carboxamide]: the concentration for half-maximal inhibition (IC50) (Homo sapiens) was 70 nM.

Regarding `[2H]C([2H])([2H])NC(=O)c1nnc(Nc2ccn(C)n2)cc1Nc1nccc(-c2cnc(C(=O)N(C)C)cn2)c1OC` [Example 90, 4-((4-(5-(Dimethylcarbamoyl)pyrazin-2-yl)-3-methoxypyridin-2-yl)amino)-N-(methyl-d3)-6-((1-methyl-1H-pyrazol-3-yl)amino)pyridazine-3-carboxamide], the half-inhibitory concentration (IC50) (Homo sapiens) came to 60 nM.

On to `[2H]C([2H])([2H])NC(=O)c1nnc(NC(=O)OC)cc1Nc1nccc(-c2noc(CN(C)S(C)(=O)=O)n2)c1OC` [Example 52, methyl N-{5-[(3-methoxy-4-{5-[(N-methylmethanesulfonamido)methyl]-1,2,4-oxadiazol-3-yl}pyridin-2-yl)amino]-6-[(^2H3)methylcarbamoyl]pyridazin-3-yl}carbamate], for which the concentration for half-maximal inhibition (IC50) (Homo sapiens) was found to be 110 nM.

In the case of `[2H]C([2H])([2H])NC(=O)c1nnc(Nc2cc(F)ccn2)cc1Nc1nccc(-c2ncn(C)n2)c1OC` [Example 19, 6-[(4-fluoropyridin-2-yl)amino]-4-{[3-methoxy-4-(1-methyl-1H-1,2,4-triazol-3-yl)pyridin-2-yl]amino}-N—(^2H3)methylpyridazine-3-carboxamide], the IC50 (Homo sapiens) was 30 nM.

In the case of `[2H]C([2H])([2H])NC(=O)c1nnc(NC(=O)C2CC2)cc1Nc1nccc(-c2cnc(C(=O)N(C)CC)cn2)c1OC` [Example 88, 6-(Cyclopropanecarboxamido)-4-((4-(5-(ethyl(methyl)carbamoyl)pyrazin-2-yl)-3-methoxypyridin-2-yl)amino)-N-(methyl-d3)pyridazine-3-carboxamide], the IC50 (Homo sapiens) came out at 130 nM.

Consider `[2H]C([2H])([2H])NC(=O)c1nnc(Nc2cc(C(C)(C)O)ccn2)cc1Nc1nccc(-c2noc(C)n2)c1OC` [Example 80, 6-{[4-(2-hydroxypropan-2-yl)pyridin-2-yl]amino}-4-{[3-methoxy-4-(5-methyl-1,2,4-oxadiazol-3-yl)pyridin-2-yl]amino}-N—(^2H3)methylpyridazine-3-carboxamide], for which the 50% inhibitory concentration (IC50) (Homo sapiens) was determined as 600 nM.

As for `[2H]C([2H])([2H])NC(=O)c1nnc(Nc2ccc(C(C)(C)O)cn2)cc1Nc1nccc(-c2ncn(C)n2)c1OC` [Example 33, 6-{[5-(2-hydroxypropan-2-yl)pyridin-2-yl]amino}-4-{[3-methoxy-4-(1-methyl-1H-1,2,4-triazol-3-yl)pyridin-2-yl]amino}-N—(^2H3)methylpyridazine-3-carboxamide], where the note is “Homo sapiens”, the concentration for half-maximal inhibition (IC50) was determined as 20 nM.

With `[2H]C([2H])([2H])NC(=O)c1nnc(Nc2ccccn2)cc1Nc1nccc(-c2ncn(C)n2)c1OC` [Example 2, 4-{[3-methoxy-4-(1-methyl-1H-1,2,4-triazol-3-yl)pyridin-2-yl]amino}-N—(^2H3)methyl-6-[(pyridin-2-yl)amino]pyridazine-3-carboxamide], the IC50 amounted to 50 nM.

With `[2H]C([2H])([2H])NC(=O)c1cnc(NC(=O)C2CC2)cc1Nc1nccc(-c2ccccn2)c1OC` [Example 84, 6-(Cyclopropanecarboxamido)-4-((3′-methoxy-[2,4′-bipyridin]-2′-yl)amino)-N-(methyl-d3)nicotinamide], the 50% inhibitory concentration (IC50) (Homo sapiens) amounted to 80 nM.

Take `[2H]C([2H])([2H])NC(=O)c1nnc(NC(=O)C2CC2)cc1Nc1nccc(-c2noc(CN3CCOCC3)n2)c1OC` [Example 55, 6-cyclopropaneamido-4-[(3-methoxy-4-{5-[(morpholin-4-yl)methyl]-1,2,4-oxadiazol-3-yl}pyridin-2-yl)amino]-N—(^2H3)methylpyridazine-3-carboxamide]: for the setting “Homo sapiens”, the half-inhibitory concentration (IC50) stood at 30 nM.

With `[2H]C([2H])([2H])NC(=O)c1cnc(NC(=O)CC)cc1Nc1nccc(-c2noc(C)n2)c1OC` [Example 43, 4-{[3-methoxy-4-(5-methyl-1,2,4-oxadiazol-3-yl)pyridin-2-yl]amino}-N—(^2H3)methy-6-propanamidopyridine-3-carboxamide], the IC50 (Homo sapiens) is 120 nM.

On to `[2H]C([2H])([2H])NC(=O)c1nnc(Nc2ccc(-n3ccccc3=O)cn2)cc1Nc1nccc(-c2ncn(C)n2)c1OC` [Example 24, 4-{[3-methoxy-4-(1-methyl-1H-1,2,4-triazol-3-yl)pyridin-2-yl]amino}-N—(^2H3)methyl-6-({2-oxo-2H-[1,3′-bipyridine]-6′-yl}amino)pyridazine-3-carboxamide], for which, for the setting “Homo sapiens”, the half-inhibitory concentration (IC50) was determined as 30 nM.

For `[2H]C([2H])([2H])NC(=O)c1cnc(NC(=O)CC)cc1Nc1nccc(-c2noc(COC)n2)c1OC` [Example 48, 4-({3-methoxy-4-[5-(methoxymethyl)-1,2,4-oxadiazol-3-yl]pyridin-2-yl}amino)-N—(^2H3)methyl-6-propanamidopyridine-3-carboxamide], the concentration for half-maximal inhibition (IC50) (Homo sapiens) is 200 nM.
